Measurements published in the kinase profiling compilation of Christmann-Franck et al. (2016).
Blank lines part the entries; values can stand above or below the compound they belong to.

How the values were obtained:
STK3 (human) = STK3 (human) (UniProt Q13188); assay: radiometric filter-binding kinase assay, Kinaseprofiler; settings: compound 1.0 µM; ATP 155 µM
IGF1R (human) = IGF1R (human) (UniProt P08069); assay: as above; settings: compound 1.0 µM; ATP 200 µM
[1] = test system: AURKA (human), O14965 [I31F]; assay: as above; settings: compound 1.0 µM; ATP 15 µM
EPHA2 (human) = EPHA2 (human) (UniProt P29317); assay: as above; settings: compound 1.0 µM; ATP 155 µM
PDGFRA (human) = PDGFRA (human) (UniProt P16234); assay: as above; settings: compound 1.0 µM; ATP 120 µM
[2] = target: JAK3 JH1 catalytic (human) (UniProt P52333); assay: as above; settings: compound 1.0 µM; ATP 10 µM
CSNK1A1 (human) = CSNK1A1 (human) (UniProt P48729); assay: SelectScreen, TR FRET
HCK (human) = HCK (human) (UniProt P08631); assay: SelectScreen, TR FRET
CDK9 CCNT1 (human) = CDK9 CCNT1 (human) (UniProt O60563+P50750); assay: SelectScreen, TR FRET
CHEK1 (human) = CHEK1 (human) (UniProt O14757); assay: SelectScreen, TR FRET
JAK1 JH1 JH2 (human) = JAK1 JH1 JH2 (human) (UniProt P23458); assay: SelectScreen, TR FRET
LRRK2 (human) = LRRK2 (human) (UniProt Q5S007); assay: SelectScreen, TR FRET
IRAK1 (human) = IRAK1 (human) (UniProt P51617); assay: SelectScreen, TR FRET
MST4 (human) = MST4 (human) (UniProt Q9P289); assay: SelectScreen, TR FRET
IRAK4 (human) = IRAK4 (human) (UniProt Q9NWZ3); assay: SelectScreen, TR FRET
CSF1R (human) = CSF1R (human) (UniProt P07333); assay: SelectScreen, TR FRET
LCK (human) = LCK (human) (UniProt P06239); assay: SelectScreen, TR FRET
CAMK4 (human) = CAMK4 (human) (UniProt Q16566); assay: SelectScreen, TR FRET
[3] = target: PRKAA1 PRKAB1 PRKAG1 (human) (UniProt P54619+Q13131+Q9Y478); assay: SelectScreen, TR FRET; settings: compound 0.1 µM
ITK (human) = ITK (human) (UniProt Q08881); assay: SelectScreen, TR FRET
MAP2K6 (human) = MAP2K6 (human) (UniProt P52564); assay: SelectScreen, TR FRET
MAP2K1 (human) = MAP2K1 (human) (UniProt Q02750); assay: SelectScreen, TR FRET
TSSK1B (human) = TSSK1B (human) (UniProt Q9BXA7); assay: SelectScreen, TR FRET
PDPK1 (human) = PDPK1 (human) (UniProt O15530); assay: SelectScreen, TR FRET
GRK4 (human) = GRK4 (human) (UniProt P32298); assay: SelectScreen, TR FRET
PTK6 (human) = PTK6 (human) (UniProt Q13882); assay: SelectScreen, TR FRET
MINK1 (human) = MINK1 (human) (UniProt Q8N4C8); assay: SelectScreen, TR FRET
IKBKB (human) = IKBKB (human) (UniProt O14920); assay: SelectScreen, TR FRET
EGFR (human) = EGFR (human) (UniProt P00533); assay: SelectScreen, TR FRET

Chain of MAP2K6 (human) (P52564 whole entry, looked up): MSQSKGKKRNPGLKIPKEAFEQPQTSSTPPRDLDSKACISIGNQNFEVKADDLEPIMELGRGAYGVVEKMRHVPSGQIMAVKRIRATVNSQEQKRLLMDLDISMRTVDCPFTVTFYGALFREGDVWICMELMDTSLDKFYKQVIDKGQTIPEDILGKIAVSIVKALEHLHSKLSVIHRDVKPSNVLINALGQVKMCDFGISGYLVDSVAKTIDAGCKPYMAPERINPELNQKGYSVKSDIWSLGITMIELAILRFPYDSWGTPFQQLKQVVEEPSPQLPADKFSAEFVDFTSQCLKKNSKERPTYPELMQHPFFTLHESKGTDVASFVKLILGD
Chain of CDK9 CCNT1 (human) (O60563 whole entry, looked up): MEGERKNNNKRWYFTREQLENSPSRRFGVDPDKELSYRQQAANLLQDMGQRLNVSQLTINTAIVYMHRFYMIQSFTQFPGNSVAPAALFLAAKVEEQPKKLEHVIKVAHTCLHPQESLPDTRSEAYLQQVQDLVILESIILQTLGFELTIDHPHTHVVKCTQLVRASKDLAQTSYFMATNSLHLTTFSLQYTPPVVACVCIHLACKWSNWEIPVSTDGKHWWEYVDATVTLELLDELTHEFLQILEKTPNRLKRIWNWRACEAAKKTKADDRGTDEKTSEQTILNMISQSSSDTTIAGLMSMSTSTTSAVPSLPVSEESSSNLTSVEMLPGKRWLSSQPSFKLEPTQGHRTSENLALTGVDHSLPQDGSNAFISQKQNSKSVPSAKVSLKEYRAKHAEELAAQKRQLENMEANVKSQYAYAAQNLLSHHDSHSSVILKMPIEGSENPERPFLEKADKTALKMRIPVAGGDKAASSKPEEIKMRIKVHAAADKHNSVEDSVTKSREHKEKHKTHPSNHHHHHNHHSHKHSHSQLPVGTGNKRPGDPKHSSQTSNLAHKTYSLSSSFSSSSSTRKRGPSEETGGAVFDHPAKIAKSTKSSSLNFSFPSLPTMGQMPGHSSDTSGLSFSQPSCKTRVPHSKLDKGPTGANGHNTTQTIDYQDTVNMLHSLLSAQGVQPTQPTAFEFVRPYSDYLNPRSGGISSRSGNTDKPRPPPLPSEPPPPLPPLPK
Chain of CDK9 CCNT1 (human) (P50750 whole entry, looked up): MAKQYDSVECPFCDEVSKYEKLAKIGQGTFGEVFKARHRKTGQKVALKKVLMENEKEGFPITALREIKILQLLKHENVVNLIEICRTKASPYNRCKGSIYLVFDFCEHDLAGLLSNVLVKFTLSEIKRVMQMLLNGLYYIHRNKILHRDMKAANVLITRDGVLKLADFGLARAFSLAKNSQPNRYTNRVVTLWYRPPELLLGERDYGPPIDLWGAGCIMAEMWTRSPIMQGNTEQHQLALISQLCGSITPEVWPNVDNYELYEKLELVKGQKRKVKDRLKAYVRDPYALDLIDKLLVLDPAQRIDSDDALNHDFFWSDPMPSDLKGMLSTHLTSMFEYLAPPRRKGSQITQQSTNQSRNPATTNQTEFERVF
Chain of MAP2K1 (human) (Q02750 whole entry, looked up): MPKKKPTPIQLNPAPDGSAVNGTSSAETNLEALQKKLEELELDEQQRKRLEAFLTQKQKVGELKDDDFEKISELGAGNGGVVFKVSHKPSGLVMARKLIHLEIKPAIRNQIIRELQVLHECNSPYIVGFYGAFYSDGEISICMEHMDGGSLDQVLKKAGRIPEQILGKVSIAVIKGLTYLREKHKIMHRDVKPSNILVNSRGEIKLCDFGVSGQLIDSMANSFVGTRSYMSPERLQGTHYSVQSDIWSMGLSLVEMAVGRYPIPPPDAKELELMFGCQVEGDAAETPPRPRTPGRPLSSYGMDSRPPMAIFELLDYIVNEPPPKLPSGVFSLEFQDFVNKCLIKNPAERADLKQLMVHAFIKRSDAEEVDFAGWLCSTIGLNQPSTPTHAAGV
Chain of CSNK1A1 (human) (P48729 whole entry, looked up): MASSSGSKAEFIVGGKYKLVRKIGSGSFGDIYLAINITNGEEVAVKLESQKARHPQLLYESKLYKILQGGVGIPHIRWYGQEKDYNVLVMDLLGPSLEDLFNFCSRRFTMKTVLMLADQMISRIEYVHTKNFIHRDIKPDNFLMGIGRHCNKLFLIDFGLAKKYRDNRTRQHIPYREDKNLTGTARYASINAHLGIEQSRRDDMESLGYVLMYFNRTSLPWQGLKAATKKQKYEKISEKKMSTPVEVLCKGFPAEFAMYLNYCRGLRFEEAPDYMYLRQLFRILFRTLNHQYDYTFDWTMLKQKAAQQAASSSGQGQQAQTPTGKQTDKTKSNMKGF
Chain of CSF1R (human) (P07333 whole entry, looked up): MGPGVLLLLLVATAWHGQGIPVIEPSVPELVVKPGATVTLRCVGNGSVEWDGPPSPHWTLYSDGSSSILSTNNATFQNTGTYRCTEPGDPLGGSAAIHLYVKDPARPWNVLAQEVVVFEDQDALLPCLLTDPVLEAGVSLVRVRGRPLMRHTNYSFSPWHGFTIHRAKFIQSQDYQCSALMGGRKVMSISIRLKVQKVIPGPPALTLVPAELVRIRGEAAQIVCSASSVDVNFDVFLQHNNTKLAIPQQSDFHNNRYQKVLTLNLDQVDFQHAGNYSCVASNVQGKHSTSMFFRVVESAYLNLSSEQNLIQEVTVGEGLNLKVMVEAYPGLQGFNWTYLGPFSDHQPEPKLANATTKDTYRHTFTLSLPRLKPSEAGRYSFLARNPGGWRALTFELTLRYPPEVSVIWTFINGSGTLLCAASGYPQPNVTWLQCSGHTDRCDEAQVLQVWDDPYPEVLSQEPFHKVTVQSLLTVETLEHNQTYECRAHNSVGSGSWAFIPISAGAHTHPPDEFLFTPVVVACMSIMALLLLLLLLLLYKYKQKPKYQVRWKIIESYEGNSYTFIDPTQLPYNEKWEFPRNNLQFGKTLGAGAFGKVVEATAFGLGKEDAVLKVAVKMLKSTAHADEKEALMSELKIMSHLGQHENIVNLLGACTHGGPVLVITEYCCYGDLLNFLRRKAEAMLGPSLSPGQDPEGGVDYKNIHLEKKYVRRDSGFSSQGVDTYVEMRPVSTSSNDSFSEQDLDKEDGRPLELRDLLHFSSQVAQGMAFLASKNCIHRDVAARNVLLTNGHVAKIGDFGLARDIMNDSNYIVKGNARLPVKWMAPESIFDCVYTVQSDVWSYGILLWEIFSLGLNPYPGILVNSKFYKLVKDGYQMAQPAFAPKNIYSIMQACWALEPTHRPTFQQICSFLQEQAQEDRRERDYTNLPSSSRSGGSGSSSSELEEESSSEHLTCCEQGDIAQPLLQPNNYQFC
Chain of PTK6 (human) (Q13882 whole entry, looked up): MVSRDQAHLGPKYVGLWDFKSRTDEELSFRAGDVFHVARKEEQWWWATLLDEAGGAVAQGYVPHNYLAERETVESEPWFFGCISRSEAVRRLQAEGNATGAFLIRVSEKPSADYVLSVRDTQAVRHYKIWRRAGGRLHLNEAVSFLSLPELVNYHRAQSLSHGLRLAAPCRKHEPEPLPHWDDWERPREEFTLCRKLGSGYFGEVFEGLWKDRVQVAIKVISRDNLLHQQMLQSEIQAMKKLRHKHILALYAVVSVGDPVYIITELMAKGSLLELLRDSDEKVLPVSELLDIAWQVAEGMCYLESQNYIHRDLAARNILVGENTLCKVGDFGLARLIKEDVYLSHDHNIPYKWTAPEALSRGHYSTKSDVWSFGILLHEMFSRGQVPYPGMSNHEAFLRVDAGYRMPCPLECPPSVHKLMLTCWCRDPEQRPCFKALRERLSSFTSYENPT
Chain of GRK4 (human) (P32298 whole entry, looked up): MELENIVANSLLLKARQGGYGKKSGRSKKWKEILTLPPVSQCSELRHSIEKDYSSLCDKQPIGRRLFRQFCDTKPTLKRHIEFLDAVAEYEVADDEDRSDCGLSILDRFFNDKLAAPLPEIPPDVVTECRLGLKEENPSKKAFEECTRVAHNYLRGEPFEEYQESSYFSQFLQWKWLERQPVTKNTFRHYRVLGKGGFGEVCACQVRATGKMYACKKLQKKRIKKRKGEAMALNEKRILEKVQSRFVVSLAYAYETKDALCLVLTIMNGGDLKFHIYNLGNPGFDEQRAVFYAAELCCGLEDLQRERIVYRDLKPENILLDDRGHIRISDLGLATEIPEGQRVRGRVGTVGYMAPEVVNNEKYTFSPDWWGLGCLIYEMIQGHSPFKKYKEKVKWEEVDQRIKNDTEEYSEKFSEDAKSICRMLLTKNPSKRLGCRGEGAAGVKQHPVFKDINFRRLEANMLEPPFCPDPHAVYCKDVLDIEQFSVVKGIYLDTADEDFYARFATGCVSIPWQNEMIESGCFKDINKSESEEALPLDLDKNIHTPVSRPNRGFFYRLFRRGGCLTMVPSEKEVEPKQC
Chain of IKBKB (human) (O14920 whole entry, looked up): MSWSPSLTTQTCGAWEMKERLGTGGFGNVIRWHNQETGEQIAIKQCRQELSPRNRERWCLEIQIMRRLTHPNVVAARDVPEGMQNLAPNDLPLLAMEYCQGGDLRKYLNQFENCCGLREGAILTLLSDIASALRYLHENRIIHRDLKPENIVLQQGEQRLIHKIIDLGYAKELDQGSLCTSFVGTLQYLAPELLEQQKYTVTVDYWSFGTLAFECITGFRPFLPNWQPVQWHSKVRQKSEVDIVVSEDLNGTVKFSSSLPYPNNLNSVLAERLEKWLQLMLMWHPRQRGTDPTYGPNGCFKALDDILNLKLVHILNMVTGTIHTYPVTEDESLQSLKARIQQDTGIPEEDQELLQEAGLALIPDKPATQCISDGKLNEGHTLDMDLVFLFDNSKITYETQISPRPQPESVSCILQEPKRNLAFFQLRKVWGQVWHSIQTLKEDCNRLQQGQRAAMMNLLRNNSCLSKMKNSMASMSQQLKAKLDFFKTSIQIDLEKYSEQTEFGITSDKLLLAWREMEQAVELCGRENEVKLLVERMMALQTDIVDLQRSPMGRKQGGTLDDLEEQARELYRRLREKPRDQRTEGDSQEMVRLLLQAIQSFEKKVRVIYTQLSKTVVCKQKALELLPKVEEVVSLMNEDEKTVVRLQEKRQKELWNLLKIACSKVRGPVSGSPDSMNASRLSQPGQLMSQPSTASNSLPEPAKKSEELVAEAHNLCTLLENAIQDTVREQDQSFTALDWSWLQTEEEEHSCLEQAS

residual activity (STK3 (human)): 90%
residual activity (IGF1R (human)): 101%
residual activity [1]: 7%
residual activity (EPHA2 (human)): 80%
residual activity (PDGFRA (human)): 59%
residual activity [2]: 81%
Structure (SMILES): CN(C)S(=O)(=O)Nc1ccc2ccc3ncc(-c4cnn(C)c4)cc3c(=O)c2c1

inhibition (CSNK1A1 (human); compound 0.1 µM): 5.1%
inhibition (CSNK1A1 (human); compound 1.0 µM): 4.8%
inhibition (CSNK1A1 (human); compound 10.0 µM): 13.3%
inhibition (HCK (human); compound 0.1 µM): 16.7%
inhibition (HCK (human); compound 1.0 µM): 19.1%
inhibition (HCK (human); compound 10.0 µM): 51.8%
inhibition (CDK9 CCNT1 (human); compound 0.1 µM): 9.4%
inhibition (CDK9 CCNT1 (human); compound 1.0 µM): 4.4%
inhibition (CDK9 CCNT1 (human); compound 10.0 µM): 10.8%
inhibition (CHEK1 (human); compound 0.1 µM): 23.2%
inhibition (CHEK1 (human); compound 1.0 µM): -1.2%
inhibition (CHEK1 (human); compound 10.0 µM): 14.2%
inhibition (JAK1 JH1 JH2 (human); compound 0.1 µM): 7.6%
inhibition (JAK1 JH1 JH2 (human); compound 1.0 µM): 12.3%
inhibition (JAK1 JH1 JH2 (human); compound 10.0 µM): 9.4%
inhibition (LRRK2 (human); compound 0.1 µM): 19.9%
inhibition (LRRK2 (human); compound 1.0 µM): 25.4%
inhibition (LRRK2 (human); compound 10.0 µM): 54.3%
inhibition (IRAK1 (human); compound 0.1 µM): 7.1%
inhibition (IRAK1 (human); compound 1.0 µM): 27.1%
inhibition (IRAK1 (human); compound 10.0 µM): 66.3%
inhibition (MST4 (human); compound 0.1 µM): 6.9%
inhibition (MST4 (human); compound 1.0 µM): 2.2%
inhibition (MST4 (human); compound 10.0 µM): -39.8%
inhibition (IRAK4 (human); compound 0.1 µM): 19.8%
inhibition (IRAK4 (human); compound 1.0 µM): 25.5%
inhibition (IRAK4 (human); compound 10.0 µM): 59%
inhibition (CSF1R (human); compound 0.1 µM): 15.7%
inhibition (CSF1R (human); compound 1.0 µM): 25.8%
inhibition (CSF1R (human); compound 10.0 µM): 58.3%
inhibition (LCK (human); compound 0.1 µM): 27.2%
inhibition (LCK (human); compound 1.0 µM): 37.9%
inhibition (LCK (human); compound 10.0 µM): 77.3%
inhibition (CAMK4 (human); compound 0.1 µM): 13.6%
inhibition (CAMK4 (human); compound 1.0 µM): 10.4%
inhibition (CAMK4 (human); compound 10.0 µM): 0.8%
inhibition [3]: 2.1%
inhibition (ITK (human); compound 0.1 µM): 1.8%
inhibition (ITK (human); compound 1.0 µM): 3.8%
inhibition (ITK (human); compound 10.0 µM): 35.8%
inhibition (MAP2K6 (human); compound 0.1 µM): 9.7%
inhibition (MAP2K6 (human); compound 1.0 µM): 9.1%
inhibition (MAP2K6 (human); compound 10.0 µM): 7.4%
inhibition (MAP2K1 (human); compound 0.1 µM): 25.7%
inhibition (MAP2K1 (human); compound 1.0 µM): 23.8%
inhibition (MAP2K1 (human); compound 10.0 µM): 13.5%
inhibition (TSSK1B (human); compound 0.1 µM): 15.5%
inhibition (TSSK1B (human); compound 1.0 µM): 11.4%
inhibition (TSSK1B (human); compound 10.0 µM): 24.9%
inhibition (PDPK1 (human); compound 0.1 µM): 3.3%
inhibition (PDPK1 (human); compound 1.0 µM): 9.3%
inhibition (PDPK1 (human); compound 10.0 µM): 25.4%
inhibition (GRK4 (human); compound 0.1 µM): 12.9%
inhibition (GRK4 (human); compound 1.0 µM): 11.9%
inhibition (GRK4 (human); compound 10.0 µM): 37.1%
inhibition (PTK6 (human); compound 0.1 µM): 9.2%
inhibition (PTK6 (human); compound 1.0 µM): 12.5%
inhibition (PTK6 (human); compound 10.0 µM): 39.1%
inhibition (MINK1 (human); compound 0.1 µM): 19.9%
inhibition (MINK1 (human); compound 1.0 µM): 29.2%
inhibition (MINK1 (human); compound 10.0 µM): 71.1%
inhibition (IKBKB (human); compound 0.1 µM): 4.6%
inhibition (IKBKB (human); compound 1.0 µM): 6.6%
inhibition (IKBKB (human); compound 10.0 µM): 8.5%
inhibition (EGFR (human); compound 0.1 µM): 0.5%
inhibition (EGFR (human); compound 1.0 µM): 0.6%
inhibition (EGFR (human); compound 10.0 µM): 7.1%
Structure (SMILES): Cn1cc(-c2cnc3ccc4ccc(CC(=O)NCc5ccccn5)cc4c(=O)c3c2)cn1
